In US6461997B1, “Triazole sulfones having herbicidal activity” (Monsanto Technology LLC, priority 1999, dated 2002):

Experiments:
[1] = system: KCHSC (kochia); assay: Pre-plant incorporated (PPI) herbicidal activity, cool season; type: in vivo, Kochia scoparia; conditions: pre-plant incorporated; lowest tested rate with 80% or greater inhibition; about 14 days
Procedure: (§1) In another set of tests, the pre-plant incorporated (PPI) activity of compounds of this invention was evaluated on the same species as for the pre-emergence tests described above. In the PPI tests the following procedure, designed to simulate PPI application, was used.
(§2) A pre-prepared topsoil mixture (described above) was placed in a pot and compacted to a depth of 1.0 to 1.25 cm from the top of the pot. Seeds of each of several monocotyledonous and dicotyledonous annual plant species were placed on top of the soil. A sufficient quantity of soil to cover the seeds and level fill the pot was weighed into an open container. A known amount of the test compound was dissolved or suspended in an organic solvent and applied by spraying to this cover soil. The cover soil was thoroughly mixed to distribute the test compound throughout the cover soil, and was then applied as a cover layer over the seeds. Untreated soil was used as a cover layer for control pots. After treatment the plants were placed in a greenhouse where they received 0.64 cm of overhead irrigation. All subsequent watering consisted of a light overhead mist and/or subirrigation as needed for germination and growth. Tables 9 and 10 below relate to warm season plant species which were placed after pre-emergence treatment in a greenhouse with a 30/21° C. day/night temperature regime. Tables 11 and 12 below relates to cool season plant species placed after pre-emergence treatment in a greenhouse or growth chamber with an 18/13° C. day/night temperature regime. Only the compounds of Examples 1, 6, 8, 11, 13 and 15-20 were included in PPI tests.
(§3) Approximately 14 days after planting and treating, the plants were observed and herbicidal efficacy recorded as percent inhibition by comparison with untreated plants.

[2] = system: DATST (jimsonweed); assay: Pre-emergence herbicidal activity, warm season; type: in vivo, Datura stramonium; conditions: for Pre-emergence activity (GR80) DATST: GR80 = lowest tested rate (300, 100, 30, 10 g/ha) with 80% or greater inhibition, approx. 14 days after treating, 30/21° C.
Summary of the method: (§4)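 Seeds sown in sterilised fertilised topsoil received surface-applied compound in 50:50 acetone/water, typically at 300, 100, 30 and 10 g/ha, then greenhouse-grown at 30/21° C (warm-season species) or 18/13° C (cool-season species). Percent inhibition versus untreated plants was scored at about 14 days, giving GR80; an asterisk marks activity short of 80% at the top rate.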

[3] = system: CIRAR (canada thistle (seedling)); assay: Pre-plant incorporated (PPI) herbicidal activity, warm season; type: in vivo, Cirsium arvense; conditions: GR80 = lowest tested rate with 80% or greater inhibition, approx. 14 days after treating, 30/21° C.
Procedure: as §1, §2, §3

[4] = system: AVEFA (wild oat); assay: Pre-plant incorporated (PPI) herbicidal activity, cool season; type: in vivo, Avena fatua; conditions: for PPI activity GR80, AVEFA: pre-plant incorporated, lowest tested rate with 80% or greater inhibition, about 14 days; for inhibition at 30 g/ha / inhibition at 100 g/ha / inhibition at 300 g/ha / inhibition at 900 g/ha: Avena fatua, weed, PPI application, read-out: Percent inhibition AVEFA
Procedure: as §1, §2, §3

[5] = system: CONAR (field bindweed); assay: Pre-plant incorporated (PPI) herbicidal activity, warm season; type: in vivo, Convolvulus arvensis; conditions: GR80 = lowest tested rate with 80% or greater inhibition, approx. 14 days after treating, 30/21° C.
Procedure: as §1, §2, §3

[6] = system: IPOSS (annual morningglory); assay: as above; type: in vivo, Ipomoea spp.; conditions: Ipomoea, PPI application, read-out: Percent inhibition IPOSS
Procedure: as §1, §2, §3

[7] = system: ABUTH (velvetleaf); assay: Pre-emergence herbicidal activity, warm season; type: in vivo, Abutilon theophrasti; conditions: for Pre-emergence activity (GR80) ABUTH: GR80 = lowest tested rate (300, 100, 30, 10 g/ha) with 80% or greater inhibition, approx. 14 days after treating, 30/21° C.
Summary of the method: as §4

[8] = system: POROL (common purslane); assay: Pre-plant incorporated (PPI) herbicidal activity, warm season; type: in vivo, Portulaca oleracea; conditions: GR80 = lowest tested rate with 80% or greater inhibition, approx. 14 days after treating, 30/21° C.
Procedure: as §1, §2, §3

[9] = system: IPOSS (annual morningglory); assay: Pre-emergence herbicidal activity, warm season; type: in vivo, Ipomoea spp.; conditions: Ipomoea, pre-emergence application, read-out: Percent inhibition, weed IPOSS
Procedure: Tables 5 to 8 summarize results of tests conducted as described below to determine the pre-emergence herbicidal activity, in the form of a GR80 value, of illustrative compounds of this invention. […] Compounds of the invention were typically applied at rates of 300, 100, 30, and 10 g/ha. Where herbicidal activity was evident but 80% inhibition was not achieved at the highest rate tested, an asterisk (*) is shown in the following tables.
The pre-emergence tests were conducted by the following procedure. Topsoil was sieved to pass through a 1.27 cm screen. Fertilizer was added to the topsoil and the mixture was then sterilized by heating. The topsoil mixture was placed in a pot and compacted to a depth of 1.0 to 1.25 cm from the top of the pot. Seeds of each of several monocotyledonous and dicotyledonous annual plant species were placed on top of the soil. Additional soil was subsequently placed over the seeds to level-fill the pot. A known amount of each test compound dissolved or suspended in an appropriate organic solvent was diluted with a 50:50 mix of acetone and water and applied to the surface of the soil. After treatment the plants were placed in a greenhouse where they received 0.64 cm of overhead irrigation. All subsequent watering consisted of a light overhead mist and/or subirrigation as needed for germination and growth. Tables 5 and 6 below relate to warm season plant species which were placed after pre-emergence treatment in a greenhouse with a 30/21° C. day/night temperature regime. Tables 7 and 8 below relates to cool season plant species placed after pre-emergence treatment in a greenhouse or growth chamber with an 18/13° C. day/night temperature regime.
as §3
The plant species usually regarded as weeds which were utilized in the tests are identified in the tables below according to the following legend, in which “d” indicates a dicotyledonous species and “m” a monocotyledonous species. All monocotyledonous species included in the tests herein are grasses.

[10] = system: AVEFA (wild oat); assay: Pre-emergence herbicidal activity, cool season; type: in vivo, Avena fatua; conditions: GR80 = lowest tested rate (300, 100, 30, 10 g/ha) with 80% or greater inhibition; approx. 14 days after treating; 18/13° C.
Summary of the method: as §4

[11] = system: AGRRE (quackgrass (seedling)); assay: Pre-emergence herbicidal activity, cool season; type: in vivo, Elymus repens; conditions: GR80 = lowest tested rate (300, 100, 30, 10 g/ha) with 80% or greater inhibition; approx. 14 days after treating; 18/13° C.
Summary of the method: as §4

[12] = system: BROTE (downy brome); assay: Pre-emergence herbicidal activity, cool season; type: in vivo, Bromus tectorum; conditions: GR80 = lowest tested rate (300, 100, 30, 10 g/ha) with 80% or greater inhibition; approx. 14 days after treating; 18/13° C.
Summary of the method: as §4

[13] = system: CONAR (field bindweed); assay: Pre-emergence herbicidal activity, warm season; type: in vivo, Convolvulus arvensis; conditions: GR80 = lowest tested rate (300, 100, 30, 10 g/ha) with 80% or greater inhibition; approx. 14 days after treating; 30/21° C.
Summary of the method: as §4

[14] = system: KCHSC (kochia); assay: Pre-emergence herbicidal activity, cool season; type: in vivo, Kochia scoparia; conditions: lowest tested rate with 80% or greater inhibition; rates 300, 100, 30, 10 g/ha; about 14 days
Summary of the method: as §4

[15] = system: LOLMG (annual ryegrass); assay: Pre-emergence herbicidal activity, cool season; type: in vivo, Lolium multiflorum; conditions: GR80 = lowest tested rate (300, 100, 30, 10 g/ha) with 80% or greater inhibition; approx. 14 days after treating; 18/13° C.
Summary of the method: as §4

[16] = Datura stramonium, pre-emergence application, read-out: Percent inhibition, weed DATST
[17] = Abutilon theophrasti, pre-emergence application, read-out: Percent inhibition, weed ABUTH

Compound	PPI activity GR80, KCHSC [1] [g/ha]	inhibition at 10 g/ha [2, 16] [%]	inhibition at 30 g/ha [2, 16] [%]	inhibition at 100 g/ha [2, 16] [%]	inhibition at 300 g/ha [2, 16] [%]	Pre-emergence activity (GR80) DATST [2] [g/ha]	PPI activity (GR80) CIRAR [3] [g/ha]	melting point [°C]	PPI activity GR80, AVEFA [4] [g/ha]	PPI activity (GR80) CONAR [5]	inhibition at 30 g/ha [6] [%]	inhibition at 300 g/ha [6] [%]	inhibition at 900 g/ha [6] [%]	inhibition at 10 g/ha [7, 17] [%]	inhibition at 30 g/ha [7, 17] [%]	inhibition at 300 g/ha [7, 17] [%]	Pre-emergence activity (GR80) ABUTH [7] [g/ha]	PPI activity (GR80) POROL [8] [g/ha]	Pre-emergence activity (GR80) AVEFA [10] [g/ha]	Pre-emergence activity GR80, KCHSC [14]	further results
CCN(CC)C(=O)n1cnc(S(=O)(=O)C(F)F)n1 [Example 15, 1-(N,N-diethylcarbamoyl)-3-(difluoromethylsulfonyl)-1,2,4-triazole]	100	0	0	0	0	300	100	58 to 59	300	* (activity observed, at least at highest rate, but <80% inhibition)	0	20	20	0	0	0	300	100	–	–	inhibition at 100 g/ha ([7]; Abutilon theophrasti, pre-emergence application, 100 g/ha, read-out: Percent inhibition, weed ABUTH): 0%; inhibition at 900 g/ha [7, 17]: 0%; inhibition at 10 g/ha [9]: 0%; inhibition at 30 g/ha [9]: 0%; inhibition at 100 g/ha [9]: 0%; inhibition at 300 g/ha [9]: 0%; inhibition at 900 g/ha [9]: 0%
CCN(CC)C(=O)n1cnc(S(=O)(=O)C(F)(F)Br)n1 [Example 1, 3-(bromodifluoromethylsulfonyl)-1-(N,N-diethylcarbamoyl)-1,2,4-triazole]	100	0	0	0	0	300	100	74 to 75	300	100 g/ha	–	60	80	0	0	0	300	30	100	300 g/ha	Pre-emergence activity (GR80) AGRRE [11]: 300 g/ha; Pre-emergence activity (GR80) BROTE [12]: 300 g/ha; inhibition at 900 g/ha ([2]; Datura stramonium, pre-emergence application, 900 g/ha, read-out: Percent inhibition, weed DATST): 20%; inhibition at 30 g/ha [4]: 0%; inhibition at 100 g/ha [4]: 20%; inhibition at 300 g/ha [4]: 95%; inhibition at 900 g/ha [4]: 90%; inhibition at 10 g/ha ([6]; 10 g/ha): 0%; Pre-emergence activity (GR80) CONAR [13]: 300 g/ha; inhibition at 900 g/ha [7, 17]: 0%; Pre-emergence activity (GR80) LOLMG [15]: 100 g/ha; inhibition at 10 g/ha [9]: 0%; inhibition at 30 g/ha [9]: 0%; inhibition at 100 g/ha [9]: 0%; inhibition at 300 g/ha [9]: 0%; inhibition at 900 g/ha [9]: 0%
CCN(CC)C(=O)n1cnc(S(=O)(=O)C(F)(F)C(=O)c2ccccc2)n1 [Example 6]	300	–	–	–	–	–	100	–	300	* (activity observed, at least at highest rate, but <80% inhibition)	–	–	–	–	–	–	–	300	300	300 g/ha	Pre-emergence activity (GR80) AGRRE [11]: 300 g/ha; Pre-emergence activity (GR80) LOLMG [15]: 300 g/ha
CCSC(F)(F)S(=O)(=O)c1ncn(C(=O)N(CC)CC)n1 [Example 8, 1-(N,N-diethylcarbamoyl)-3-[difluoro(ethylthio)methylsulfonyl]-1,2,4-triazole]	100	–	–	–	–	300	100	–	100	300 g/ha	0	90	100	–	–	–	300	100	300	[empty]	Pre-emergence activity (GR80) BROTE [12]: * (activity observed, at least at highest rate, but <80% inhibition); inhibition at 30 g/ha [4]: 10%; inhibition at 100 g/ha [4]: 75%; inhibition at 300 g/ha [4]: 95%; inhibition at 900 g/ha [4]: 100%; inhibition at 100 g/ha ([6]; 100 g/ha): 70%; Pre-emergence activity (GR80) CONAR [13]: 100 g/ha
